Experimental data taken from patent US9512142B2, “Tricyclic triazolic compounds” (LABORATORIOS DEL DR. ESTEVE S.A., priority 2013, dated 2016).
Like-named read-outs stand apart in the source and are kept apart here.

Experiments:
Kinetic solubility = assay type: physicochemical; conditions: kinetic from dmso stock, buffered aqueous solution at pH=7.4, 10 μL of 10 mM DMSO solution in 1 mL, stirred 4 hours, supernatant by liquid chromatography, read-out: Kin. Solub.
Protocol: To a buffered aqueous solution at pH=7.4 (1 mL), a 10 mM DMSO solution of the test compound (10 μL) was added and the mixture stirred for 4 hours. After centrifugation, the compound concentration in the supernatant was determined by liquid chromatography by fitting in a calibration curve of the compound.

human sigma 1 receptor = target: T1, human sigma 1 receptor (Homo sapiens, UniProt Q99720); experiment: Human sigma 1 receptor radioligand assay ([3H](+)-pentazocine, transfected HEK-293 membranes); assay type: binding
T1 construct: expressed in transfected cells; host or cells: HEK-293
Protocol: Human Sigma 1 Receptor Radioligand Assay
The assay was carried out with 7 μg of membrane suspension, 5 nM of [^3H](+)-pentazocine in either absence or presence of either buffer or 10 μM Haloperidol for total and non-specific binding, respectively. Binding buffer contained Tris-HCl 50 mM at pH 8. Plates were incubated at 37° C. for 120 minutes. After the incubation period, the reaction mix was then transferred to MultiScreen HTS, FC plates (Millipore), filtered and plates were washed 3 times with ice-cold 10 mM Tris-HCL (pH7.4). Filters were dried and counted at approximately 40% efficiency in a MicroBeta scintillation counter (Perkin-Elmer) using EcoScint liquid scintillation cocktail.

[1] = buffered aqueous solution, pH 7.4, aqueous buffer
[2] = 5 nM [3H](+)-pentazocine, transfected HEK-293 membranes, 37° C., 120 minutes, read-out: Ki

T1 sequence (Q99720 whole entry): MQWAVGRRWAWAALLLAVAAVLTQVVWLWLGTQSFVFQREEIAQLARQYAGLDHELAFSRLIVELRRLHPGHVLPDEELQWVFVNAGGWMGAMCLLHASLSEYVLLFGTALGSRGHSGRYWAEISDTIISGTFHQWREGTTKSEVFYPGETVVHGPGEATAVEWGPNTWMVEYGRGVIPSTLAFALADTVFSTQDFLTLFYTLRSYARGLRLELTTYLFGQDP

| SMILES | solubility at 4 h (Kinetic solubility; [1]) [µM] | Ki (human sigma 1 receptor; [2]) [nM] | solubility at 4 h (Kinetic solubility; aqueous buffer) [µM] | Ki (human sigma 1 receptor) [nM] |
| --- | --- | --- | --- | --- |
| CCOc1ccc(CN2C[C@@H]3[C@@H](C2)OCc2c(-c4ccccc4F)nnn23)cn1.Cl [Example 19, (5aR,8aR)-7-((6-ethoxypyridin-3-yl)methyl)-3-(2-fluorophenyl)-4,5a,6,7,8,8a-hexahydropyrrolo[3,4-b][1,2,3]triazolo[1,5-d][1,4]oxazine hydrochloride] | > 10 | 83.3 |  |  |
| Cc1cc(CN2C[C@@H]3OCc4c(-c5ccc(F)cc5F)nnn4[C@H]3C2)c(C)o1.Cl [Example 22, (5aS,8aS)-3-(2,4-difluorophenyl)-7-((2,5-dimethylfuran-3-yl)methyl)-4,5a,6,7,8,8a-hexahydropyrrolo[3,4-b][1,2,3]triazolo[1,5-d][1,4]oxazine hydrochloride] | > 10 | 119 |  |  |
| Cc1cc(CN2C[C@@H]3[C@@H](C2)OCc2c(-c4ccc(F)cc4F)nnn23)c(C)o1.Cl [Example 23, (5aR,8aR)-3-(2,4-difluorophenyl)-7-((2,5-dimethylfuran-3-yl)methyl)-4,5a,6,7,8,8a-hexahydropyrrolo[3,4-b][1,2,3]triazolo[1,5-d][1,4]oxazine hydrochloride] | > 10 | 41.9 |  |  |
| Cl.c1ccc(-c2nnn3c2CO[C@H]2CN(C4CCOCC4)C[C@@H]23)nc1 [Example 31, (5aS,8aS)-3-(pyridin-2-yl)-7-(tetrahydro-2H-pyran-4-yl)-4,5a,6,7,8,8a-hexahydropyrrolo[3,4-b][1,2,3]triazolo[1,5-d][1,4]oxazine hydrochloride] |  |  | > 10 | 241 |
| Cl.c1ccc(CN2C[C@@H]3[C@@H](C2)OCc2c(-c4ccccn4)nnn23)cc1 [Example 32, (5aR,8aR)-7-benzyl-3-(pyridin-2-yl)-4,5a,6,7,8,8a-hexahydropyrrolo[3,4-b][1,2,3]triazolo[1,5-d][1,4]oxazine hydrochloride] | > 10 | 37 |  |  |
| Cl.c1ccc(CN2C[C@@H]3OCc4c(-c5ccccn5)nnn4[C@H]3C2)cc1 [Example 33, (5aS,8aS)-7-benzyl-3-(pyridin-2-yl)-4,5a,6,7,8,8a-hexahydropyrrolo[3,4-b][1,2,3]triazolo[1,5-d][1,4]oxazine hydrochloride] | > 10 | 225 |  |  |
| Cl.Fc1ccc(-c2nnn3c2CO[C@@H]2CN(Cc4ccc(F)nc4)C[C@H]23)c(Cl)c1 [Example 39, (5aR,8aR)-3-(2-chloro-4-fluorophenyl)-7-((6-fluoropyridin-3-yl)methyl)-4,5a,6,7,8,8a-hexahydropyrrolo[3,4-b][1,2,3]triazolo[1,5-d][1,4]oxazine hydrochloride] | > 10 | 166 |  |  |
| COc1ccc(CN2C[C@@H]3[C@@H](C2)OCc2c(-c4ccc(F)cc4Cl)nnn23)cn1.Cl [Example 49, (5aR,8aR)-3-(2-chloro-4-fluorophenyl)-7-((6-methoxypyridin-3-yl)methyl)-4,5a,6,7,8,8a-hexahydropyrrolo[3,4-b][1,2,3]triazolo[1,5-d][1,4]oxazine hydrochloride] | > 10 | 112 |  |  |
| COc1ccc(CN2C[C@@H]3OCc4c(-c5ccc(F)cc5Cl)nnn4[C@H]3C2)cn1.Cl [Example 50, (5aS,8aS)-3-(2-chloro-4-fluorophenyl)-7-((6-methoxypyridin-3-yl)methyl)-4,5a,6,7,8,8a-hexahydropyrrolo[3,4-b][1,2,3]triazolo[1,5-d][1,4]oxazine hydrochloride] | > 10 | 99.9 |  |  |
| COc1ccc(CN2C[C@@H]3[C@@H](C2)OCc2c(-c4ccc(F)cc4F)nnn23)cn1.Cl [Example 51, (5aR,8aR)-3-(2,4-difluorophenyl)-7-((6-methoxypyridin-3-yl)methyl)-4,5a,6,7,8,8a-hexahydropyrrolo[3,4-b][1,2,3]triazolo[1,5-d][1,4]oxazine hydrochloride] | > 10 | 234 |  |  |
| COc1ccc(CN2C[C@@H]3OCc4c(-c5ccc(F)cc5F)nnn4[C@H]3C2)cn1.Cl [Example 52, (5aS,8aS)-3-(2,4-difluorophenyl)-7-((6-methoxypyridin-3-yl)methyl)-4,5a,6,7,8,8a-hexahydropyrrolo[3,4-b][1,2,3]triazolo[1,5-d][1,4]oxazine hydrochloride] | > 10 | 272 |  |  |

The next lines start with results.

| solubility at 4 h (Kinetic solubility; [1]) [µM] | Ki (human sigma 1 receptor; [2]) [nM] | SMILES | solubility at 4 h (Kinetic solubility; aqueous buffer) [µM] | Ki (human sigma 1 receptor) [nM] |
| --- | --- | --- | --- | --- |
| > 10 | 29.7 | Cl.Fc1ccccc1-c1nnn2c1CO[C@H]1CN(C[C@H]3CCOC3)C[C@@H]12 [Example 15, (5aS,8aS)-3-(2-fluorophenyl)-7-(((R)-tetrahydrofuran-3-yl)methyl)-4,5a,6,7,8,8a-hexahydropyrrolo[3,4-b][1,2,3]triazolo[1,5-d][1,4]oxazine hydrochloride] |  |  |
| > 10 | 97.6 | Cl.Fc1ccccc1-c1nnn2c1CO[C@@H]1CN(C[C@@H]3CCOC3)C[C@H]12 [Example 16, (5aR,8aR)-3-(2-fluorophenyl)-7-(((S)-tetrahydrofuran-3-yl)methyl)-4,5a,6,7,8,8a-hexahydropyrrolo[3,4-b][1,2,3]triazolo[1,5-d][1,4]oxazine hydrochloride] |  |  |
| > 10 | 49.2 | Cl.Fc1ccccc1-c1nnn2c1CO[C@H]1CN(C[C@@H]3CCOC3)C[C@@H]12 [Example 17, (5aS,8aS)-3-(2-fluorophenyl)-7-(((S)-tetrahydrofuran-3-yl)methyl)-4,5a,6,7,8,8a-hexahydropyrrolo[3,4-b][1,2,3]triazolo[1,5-d][1,4]oxazine hydrochloride] |  |  |
| > 10 | 171 | Cl.Fc1ccccc1-c1nnn2c1CO[C@@H]1CN(C[C@H]3CCOC3)C[C@H]12 [Example 18, (5aR,8aR)-3-(2-fluorophenyl)-7-(((R)-tetrahydrofuran-3-yl)methyl)-4,5a,6,7,8,8a-hexahydropyrrolo[3,4-b][1,2,3]triazolo[1,5-d][1,4]oxazine hydrochloride] |  |  |
| > 10 | 20.4 | Cl.Fc1ccc(-c2nnn3c2CO[C@H]2CN(C4CCOCC4)C[C@@H]23)c(F)c1 [Example 27, (5aS,8aS)-3-(2,4-difluorophenyl)-7-(tetrahydro-2H-pyran-4-yl)-4,5a,6,7,8,8a-hexahydropyrrolo[3,4-b][1,2,3]triazolo[1,5-d][1,4]oxazine hydrochloride] |  |  |
| > 10 | 33.3 | Cl.Fc1ccc(-c2nnn3c2CO[C@@H]2CN(CC4CCOCC4)C[C@H]23)c(Cl)c1 [Example 42, (5aR,8aR)-3-(2-chloro-4-fluorophenyl)-7-((tetrahydro-2H-pyran-4-yl)methyl)-4,5a,6,7,8,8a-hexahydropyrrolo[3,4-b][1,2,3]triazolo[1,5-d][1,4]oxazine hydrochloride] |  |  |
| > 10 | 20.5 | Cl.Fc1ccc(-c2nnn3c2CO[C@H]2CN(CC4CCOCC4)C[C@@H]23)c(Cl)c1 [Example 43, (5aS,8aS)-3-(2-chloro-4-fluorophenyl)-7-((tetrahydro-2H-pyran-4-yl)methyl)-4,5a,6,7,8,8a-hexahydropyrrolo[3,4-b][1,2,3]triazolo[1,5-d][1,4]oxazine hydrochloride] |  |  |
| > 10 | 15.1 | Cl.Clc1ccc(-c2nnn3c2CO[C@H]2CN(C4CCOCC4)C[C@@H]23)c(Cl)c1 [Example 46, (5aS,8aS)-3-(2,4-dichlorophenyl)-7-(tetrahydro-2H-pyran-4-yl)-4,5a,6,7,8,8a-hexahydropyrrolo[3,4-b][1,2,3]triazolo[1,5-d][1,4]oxazine hydrochloride] |  |  |
| > 10 | 26.8 | Cl.Fc1ccc(-c2nnn3c2CO[C@@H]2CN(CCC4CCOCC4)C[C@H]23)c(Cl)c1 [Example 47, (5aR,8aR)-3-(2-chloro-4-fluorophenyl)-7-(2-(tetrahydro-2H-pyran-4-yl)ethyl)-4,5a,6,7,8,8a-hexahydropyrrolo[3,4-b][1,2,3]triazolo[1,5-d][1,4]oxazine hydrochloride] |  |  |
| > 10 | 11.7 | Cl.Fc1ccc(-c2nnn3c2CO[C@H]2CN(CCC4CCOCC4)C[C@@H]23)c(Cl)c1 [Example 48, (5aS,8aS)-3-(2-chloro-4-fluorophenyl)-7-(2-(tetrahydro-2H-pyran-4-yl)ethyl)-4,5a,6,7,8,8a-hexahydropyrrolo[3,4-b][1,2,3]triazolo[1,5-d][1,4]oxazine hydrochloride] |  |  |
| > 10 | 16.8 | Cl.Clc1ccc(-c2nnn3c2CO[C@H]2CN(CCC4CCOCC4)C[C@@H]23)c(Cl)c1 [Example 53, (5aS,8aS)-3-(2,4-dichlorophenyl)-7-(2-(tetrahydro-2H-pyran-4-yl)ethyl)-4,5a,6,7,8,8a-hexahydropyrrolo[3,4-b][1,2,3]triazolo[1,5-d][1,4]oxazine hydrochloride] |  |  |
| > 10 | 71.4 | Cl.Clc1ccc(-c2nnn3c2CO[C@@H]2CN(CCC4CCOCC4)C[C@H]23)c(Cl)c1 [Example 54, (5aR,8aR)-3-(2,4-dichlorophenyl)-7-(2-(tetrahydro-2H-pyran-4-yl)ethyl)-4,5a,6,7,8,8a-hexahydropyrrolo[3,4-b][1,2,3]triazolo[1,5-d][1,4]oxazine hydrochloride] |  |  |
